# Assay results reported in US10350273B2, “Treatment of hormonal disorders of growth” (The United States of America, as represented by the …, priority 2014, dated 2019).
# Entries after “also recorded” stand apart in the source; their conditions may differ. Numbered stars: 1 amine (or outer) side, 2 acyl side, 3 side chain; on linkers, the order of the positions; unused ones are H or OH. Square brackets hold non-standard residues; d marks the D form. Side chains are listed from the residue outwards. Ends that are not written are not given here. Peptide text beside a SMILES is read from it. * marks the point of attachment. Ethylenediamine = C(CN[*:2])N[*:1]; Hyp = O=C(O)[C@@H]1C[C@@H](O)CN1; Phg = N[C@H](C(=O)O)c1ccccc1; CO = O=C([*:1])[*:2]; Bn = c1ccc(C*)cc1
# Assays:
# somatotroph cells [1] = experiment: GH secretion by primary pituitary tumor cell culture of an X-LAG patient; assay type: cell-based, human; conditions: for GH change compared to control wells: overnight incubation; for effect on GH secretion (in words): X-LAG pituitary tumor cell culture, dose range; for GH response on co-incubation with GHRH: co-incubation with GHRH 10^−10M
# Experimental: (§1) A surgical sample of the human pituitary adenoma of the patient mentioned in example 11 in Dulbecco's modified Eagle's medium (DMEM) was dissociated mechanically and enzymatically as described by Jaquet et al. (Hormonal regulation of prolactin release by human prolactinoma cells cultured in serum-free conditions. Horm Res 22 153-163, 1985). A sample of the medium in the postoperative sample was retained before further preparation. A total of 50,000 tumor cells per well were plated in 24 well plates coated with extracellular matrix from bovine endothelial corneal cells required for cell adhesion. The cells were cultured in DMEM depleted of L-Valine (D-Valine-DMEM) to block fibroblast proliferation, supplemented with 10% fetal calf serum, penicillin (100 U/ml), streptomycin (100 μg/ml), and glutamine ([…]) at 37° C. in a water-saturated atmosphere containing 7% CO2. After 48 h, culture medium was changed to D-Valine DMEM containing 1% ITS (Insulin Transferin Selenium) and 1% fetal calf serum for another 48 h. Cells were incubated with drugs at a range of concentrations (10^−12-10^−7 mol/L) for 16 h (overnight). All the experiments were performed in triplicate. The medium was collected and stored frozen for GH and PRL measurements.
# (§2) The somatostatin analogs (SSAs), octreotide and pasireotide were purchased from Novartis (Basel, Switzerland), Forskolin was obtained from Sigma-Aldrich (St. Quentin Fallavier, France), Cabergoline was obtained from Pfizer (Pharmacia & Upjohn Kalamazoo, USA), MK-0677 (ghrelin analog) was obtained from Europeptide, Argenteuil France, and MSP (ghrelin receptor-GHS-R inverse agonist) came from Polypeptide Laboratories (Strasbourg, France). The GHRH receptor antagonist, acetyl-(D-Arg^2)-GHRH(1-29) amide, and GnRH1-5 were obtained from Bachem, Europe.
# (§3) GH secretion by the primary culture cells was quantified using the ALPHALISA® human growth hormone GH kit (Perkin Elmer USA). Prolactin levels were measured in culture medium using a commercial IRMA kit (PRL IRMA Kit-Beckman Coulter Immunotech, Marseille, France). Human GHRH concentrations in plasma were measured using an in-house double-antibody radio-immunoassay as described previously and using a standard solution of Stimu-GH 50 μg (Ferring) and the matrix was non-used culture medium (Girard et al.; Eur. J. Clin. Pharmacol., 32, 507-513, 1987).
# somatotroph cells [2] = experiment: Prolactin (PRL) secretion by primary pituitary tumor cell culture of an X-LAG patient; assay type: cell-based, human; conditions: for effect on prolactin secretion (in words): X-LAG pituitary tumor cell culture, dose range; for PRL change compared to control wells: overnight incubation, mean±SEM; for PRL response on co-incubation with GHRH: co-incubation with GHRH 10^−10M
# Experimental: as §1, §2, §3
# X-LAG patients = experiment: Clinical treatment of X-LAG patients; assay type: in vivo, human; conditions: for IGF-1 levels under treatment: octreotide 150 mcg sc t.i.d. together with cabergoline 0.5 mg/week, one patient; for hormonal or growth control: X-LAG patients
# Description: Among the nine patients who underwent primary surgical resection, three had immediate GH/PRL control and excessive growth was halted. For those patients in whom growth and GH secretion were not controlled by their initial surgery, the subsequent management was complex. […] Therefore, it can be concluded that the GH receptor antagonist pegvisomant represents a useful option for IGF-1 and growth control.
# The patient was a person with no family history of growth disorders. […] […] the patient began to grow excessively in terms of length and weight, exceeding the 97th percentile of their growth charts […]. […] A random level of GHRH was raised, although no potential ectopic sources were identified. […] As chronic treatment with somatostatin analogs and dopamine agonists for 12 months had no effect on the patient's excessive growth and their pituitary lesion began impinging on the optic chiasm, the patient was referred for neurosurgical treatment.
# cAMP production = experiment: cAMP assay (HTRF-cAMP Femto Kit) in cells from the tumor; assay type: cell-based, human; conditions: 10^−6M, 3 h, 37° C.
# Experimental: Following the pharmacological co-incubation studies described in Example 13 the response of the tumor cells in terms of cAMP production was assessed. The cells from tumor were seeded into 24-well plates (4×10^4 cells/well). After 24 h in culture, the cAMP concentration was determined using the HTRF-cAMP Femto Kit (CisBio International, Bagnols-sur-Cèze, France), as described previously Cuny et al. (Mol Cell Endocrinol 355, 106-113, 2012). According to the manufacturer's protocol, the cells were detached using trypsin, seeded onto 96-well plates in suspension, and incubated at 37° C. for 3 h in the presence of forskolin. The HTRF assay reagents were then added directly into the 96-well plates.
# sporadic X-LAG patient = experiment: Dynamic pituitary hormone tests (TRH test, GnRH test) in the X-LAG patient; assay type: in vivo, human
# Description: Fluctuations in elevated GHRH levels also occurred, and these were partially but not completely in phase with alterations in GH. While the elevated prolactin levels varied by less than +7% from baseline throughout the study, changes in GH levels were more marked (−23.6% to +61.5%).
# pituitary = conditions: cited from earlier work
# somatotroph cells [3] = experiment: GH secretion by primary pituitary tumor cell culture of an X-LAG patient; assay type: cell-based, human; conditions: 10^−13 M, overnight incubation, mean±SEM
# [4] = TRH 125 μg IV or GnRH 25 μg IV, 0, 15, 30 and 90 minutes
# [5] = listed as acetyl-(D-Arg^2)-GHRH(1-29)
compound,measurement,setting,value
CC(C)(N)C(=O)N[C@H](COCc1ccccc1)C(=O)N1CCC2(CC1)CN(S(C)(=O)=O)c1ccccc12 [MK-0677],GH change compared to control wells,"somatotroph cells [1]; concentration not given, mean±SEM",+15±0.5%
same,effect on prolactin secretion (in words),somatotroph cells [2],no effect on prolactin secretion
C=CCN1C[C@H](C(=O)N(CCCN(C)C)C(=O)NCC)C[C@@H]2c3cccc4[nH]cc(c34)C[C@H]21 [cabergoline],IGF-1 levels under treatment,X-LAG patients,remained consistently elevated
same,GH change compared to control wells,"somatotroph cells [1]; 10^−8M, mean±SEM",−32±0.8%
same,PRL change compared to control wells,somatotroph cells [2]; concentration not given,−15±0.04%
C=C[C@@]1(C)CC(=O)[C@]2(O)[C@@]3(C)[C@@H](O)CCC(C)(C)[C@@H]3[C@H](O)[C@H](OC(C)=O)[C@@]2(C)O1 [forskolin],rise in cAMP production compared with controls,cAMP production,+396±1.9%
CC(C)[C@@H]1NC(=O)[C@H](CCCCN)NC(=O)[C@@H](Cc2c[nH]c3ccccc23)NC(=O)[C@H](Cc2ccc(O)cc2)NC(=O)[C@@H](NC(=O)[C@H](N)Cc2ccc3ccccc3c2)CSSC[C@@H](C(=O)N[C@H](C(N)=O)[C@@H](C)O)NC1=O [lanreotide],hormonal or growth control,X-LAG patients,did not lead to hormonal or growth control
C[C@@H](O)[C@@H]1NC(=O)[C@H](CCCCN)NC(=O)[C@@H](Cc2c[nH]c3ccccc23)NC(=O)[C@H](Cc2ccccc2)NC(=O)[C@@H](NC(=O)[C@H](N)Cc2ccccc2)CSSC[C@@H](C(=O)N[C@H](CO)[C@@H](C)O)NC1=O [octreotide],hormonal or growth control,X-LAG patients,did not lead to hormonal or growth control
same,IGF-1 levels under treatment,X-LAG patients,remained consistently elevated
same,effect on GH secretion (in words),somatotroph cells [1],no inhibitory effect on GH or prolactin; also recorded: no inhibition in GH secretion
same,PRL change compared to control wells,somatotroph cells [2]; 10^−9M,−26±0.03%
same,effect on prolactin secretion (in words),somatotroph cells [2],no inhibitory effect on GH or prolactin
NCCCC[C@@H]1NC(=O)[C@@H](Cc2c[nH]c3ccccc23)NC(=O)[C@H](c2ccccc2)NC(=O)[C@@H]2C[C@@H](OC(=O)NCCN)CN2C(=O)[C@H](Cc2ccccc2)NC(=O)[C@H](Cc2ccc(OCc3ccccc3)cc2)NC1=O [pasireotide] (cyclo([Hyp]([CO-Ethylenediamine])[Phg][dW]KY(Bn)F)),GH change compared to control wells,"somatotroph cells [1]; 10^−8M, mean±SEM",−18±0.6%
same,effect on GH secretion (in words),somatotroph cells [1],small inhibitory effect on GH secretion
same,effect on prolactin secretion (in words),somatotroph cells [2],no effect on prolactin secretion
GHRH: Human GHRH (hGHRH) peptide is comprised of 44 amino acid residues (YADAIFTNSYRKVLGQLSARKLLQDIMSRQQGESNQERGARARL),GH change compared to control wells,"somatotroph cells [1]; 10^−10 M, mean±SEM",+41±0.4%
same,effect on GH secretion (in words),somatotroph cells [1],further stimulated
same,PRL change compared to control wells,somatotroph cells [2]; 10^−8M,+11±0.4%
same,effect on prolactin secretion (in words),somatotroph cells [2],further stimulated
Ghrelin,effect on GH secretion (in words),somatotroph cells [1],minor stimulatory effect on GH secretion
"GnRH1-5: fragment of gonadotropin-releasing hormone, putative GPR101 agonist (QHWSY; ends and bridges not checked)",GH change compared to control wells,"somatotroph cells [1]; 10^−10 M, mean±SEM",+15±1.5%
same,effect on GH secretion (in words),somatotroph cells [1],little effect on GH
same,effect on prolactin secretion (in words),somatotroph cells [2],did not stimulate prolactin release
"GnRH: gonadotropin-releasing hormone, 25 μg IV GnRH (HRF-AYERST) (QHWSYGLRPG; not fully specified (residue 1, C-terminus); UniProt P01148 24-33, looked up)",GH level after GnRH administration,"sporadic X-LAG patient; 25 μg IV GnRH, baseline GH 212 ng/mL",50 ng/mL
same,GH response (in words),sporadic X-LAG patient; [4],suppression of GH levels at 30 mins
same,GHRH level response (in words),sporadic X-LAG patient; [4],not markedly altered; also recorded: GHRH levels remained unaltered; also recorded: remained elevated throughout
same,prolactin response (in words),sporadic X-LAG patient; [4],prolactin rose mildly
Tyr-Ala-Asp-Ala-Ile-Phe-Thr-Asn-Ser-Tyr-Arg-Lys-Val-Leu-Gly-Gln-Leu-Ser-Ala-Arg-Lys-Leu-Leu-Gln-Asp-Ile-Met-Ser-Arg-NH2 [GHRH(1-29)],potency relative to native GHRH,pituitary,≥ 50%
acetyl-(D-Arg^2)-GHRH(1-29) amide (Ac-Y[dR]DAIFTNSYRKVLGQLSARKLLQDIMSR-NH2; SMILES CC[C@H](C)[C@H](NC(=O)[C@H](C)NC(=O)[C@H](CC(=O)O)NC(=O)[C@@H](CCCNC(=N)N)NC(=O)[C@H](Cc1ccc(O)cc1)NC(C)=O)C(=O)N[C@@H](Cc1ccccc1)C(=O)N[C@H](C(=O)N[C@@H](CC(N)=O)C(=O)N[C@@H](CO)C(=O)N[C@@H](Cc1ccc(O)cc1)C(=O)N[C@@H](CCCNC(=N)N)C(=O)N[C@@H](CCCCN)C(=O)N[C@H](C(=O)N[C@@H](CC(C)C)C(=O)NCC(=O)N[C@@H](CCC(N)=O)C(=O)N[C@@H](CC(C)C)C(=O)N[C@@H](CO)C(=O)N[C@@H](C)C(=O)N[C@@H](CCCNC(=N)N)C(=O)N[C@@H](CCCCN)C(=O)N[C@@H](CC(C)C)C(=O)N[C@@H](CC(C)C)C(=O)N[C@@H](CCC(N)=O)C(=O)N[C@@H](CC(=O)O)C(=O)N[C@H](C(=O)N[C@@H](CCSC)C(=O)N[C@@H](CO)C(=O)N[C@@H](CCCNC(=N)N)C(N)=O)[C@@H](C)CC)C(C)C)[C@@H](C)O) [acetyl-(D-Arg^2)-GHRH (1-29) amide],GH change compared to control wells,somatotroph cells [3],+18±0.8%
same,GH change compared to control wells,"somatotroph cells [1]; 10^−11M, mean±SEM",+13±1.9%
same,effect on GH secretion (in words),somatotroph cells [1],reduce basal and stimulated GH and prolactin secretion in a dose dependent manner
same,GH response on co-incubation with GHRH,somatotroph cells [1],complete abolition
same,GH response on co-incubation with GHRH,somatotroph cells [1]; [5],abolished the stimulatory effect of GHRH itself
same,GH change compared to control wells,somatotroph cells [1]; highest GHRH-receptor antagonist dose studied,approximately −34±1.9%
same,PRL change compared to control wells,somatotroph cells [2]; 10^−8M,−73±0.1%
same,effect on prolactin secretion (in words),somatotroph cells [2],reduce basal and stimulated GH and prolactin secretion in a dose dependent manner
same,PRL response on co-incubation with GHRH,somatotroph cells [2],complete abolition
same,PRL response on co-incubation with GHRH,somatotroph cells [2]; [5],abolished the stimulatory effect of GHRH itself
pegvisomant,control of IGF1 (and growth),X-LAG patients; postoperative use in X-LAG patients,control of IGF1 in all five X-LAG patients; also recorded: control of IGF1 and excessive growth in three patients
